Species on record: Rattus norvegicus
Assay: DrugMatrix - Regimen: Daily Repeat
Format: toxicity, organism-based, Sprague-Dawley
Set-up: regimen Daily Repeat, gender Male, age 6-8 weeks
Settings: in vivo, po, route oral GAVAGE, vehicle .5 % CMC; for ABSOLUTE BASOPHIL / ABSOLUTE EOSINOPHIL / ABSOLUTE LYMPHOCYTE / ABSOLUTE MONOCYTE / ABSOLUTE SEGMENTED NEUTROPHIL / BASOPHIL / EOSINOPHIL / ERYTHROCYTE COUNT / HEMATOCRIT / HEMOGLOBIN / LEUKOCYTE COUNT / LYMPHOCYTE / MEAN CORPUSCULAR HEMOGLOBIN / MEAN CORPUSCULAR HEMOGLOBIN CONCENTRATION / MEAN CORPUSCULAR VOLUME / MONOCYTE / NEUTROPHIL / NUCLEATED RED BLOOD CELLS / PLATELET COUNT: tissue Blood; for ALANINE AMINOTRANSFERASE / ALBUMIN / ALKALINE PHOSPHATASE / ASPARTATE AMINOTRANSFERASE / BLOOD UREA NITROGEN / CARBON DIOXIDE / CHLORIDE / CHOLESTEROL / CREATINE PHOSPHOKINASE / CREATININE / GLUCOSE / LACTATE DEHYDROGENASE / LIPASE / PHOSPHORUS / POTASSIUM / SODIUM / TOTAL BILIRUBIN / TOTAL PROTEIN / URIC ACID: tissue Plasma
[1] = 0 mg/kg, 72 h, dose level Control, time 3 day
[2] = 0 mg/kg, 120 h, dose level Control, time 5 day
[3] = 15 mg/kg, 72 h, dose level Low, time 3 day

For `CN1C(=O)CN=C(c2ccccc2)c2cc(Cl)ccc21` [DIAZEPAM], the “ABSOLUTE BASOPHIL” value [1] was 0 CELLS/uL, the “ABSOLUTE EOSINOPHIL” value [1] was 0 CELLS/uL and the “ABSOLUTE LYMPHOCYTE” value [1] was 12269.67 CELLS/uL. For the same compound, the “ABSOLUTE MONOCYTE” value [1] was 160.33 CELLS/uL, the “ABSOLUTE SEGMENTED NEUTROPHIL” value [1] was 970 CELLS/uL and the BASOPHIL [1] was 0%. For the same compound, the EOSINOPHIL [1] was 0%, the “ERYTHROCYTE COUNT” value [1] was 5.76 x10E6/uL and the HEMATOCRIT [1] was 36.57%. The HEMOGLOBIN [1] was 14.22 G/DL, the “LEUKOCYTE COUNT” value [1] was 13.4 x10E3/uL and the LYMPHOCYTE [1] was 91.67%. The “MEAN CORPUSCULAR HEMOGLOBIN” value [1] was 24.67 pg, the “MEAN CORPUSCULAR HEMOGLOBIN CONCENTRATION” value [1] was 38.85 G/DL and the “MEAN CORPUSCULAR VOLUME” value [1] was 63.52 fL. The MONOCYTE [1] was 1.17%, the NEUTROPHIL [1] was 7.17% and the “NUCLEATED RED BLOOD CELLS” value [1] was 0.33 /100WBC. For the same compound, the “PLATELET COUNT” value [1] was 1250.83 x10E3/uL, the “ALANINE AMINOTRANSFERASE” value [1] was 49.17 u/L and the ALBUMIN [1] was 4.33 G/DL. For the same compound, the “ALKALINE PHOSPHATASE” value [1] was 378.5 u/L, the “ASPARTATE AMINOTRANSFERASE” value [1] was 82.17 u/L and the “BLOOD UREA NITROGEN” value [1] was 15 mg/dL. For the same compound, the “CARBON DIOXIDE” value [1] was 34.33 mmol/L, the CHLORIDE [1] was 99.17 MEQ/L and the CHOLESTEROL [1] was 71.17 mg/dL. For the same compound, the “CREATINE PHOSPHOKINASE” value [1] was 258.67 u/L, the CREATININE [1] was 0.18 mg/dL and the GLUCOSE [1] was 142.67 mg/dL. The “LACTATE DEHYDROGENASE” value [1] was 154.33 u/L, the LIPASE [1] was 9 u/L and the PHOSPHORUS [1] was 11.67 mg/dL. For the same compound, the POTASSIUM [1] was 7.13 MEQ/L, the SODIUM [1] was 142.22 MEQ/L and the “TOTAL BILIRUBIN” value [1] was 0.18 mg/dL. For the same compound, the “TOTAL PROTEIN” value [1] was 5.77 G/DL, the “URIC ACID” value [1] was 1.55 mg/dL and the “ABSOLUTE BASOPHIL” value [2] was 0 CELLS/uL. For the same compound, the “ABSOLUTE EOSINOPHIL” value [2] was 23.33 CELLS/uL, the “ABSOLUTE LYMPHOCYTE” value [2] was 14943.67 CELLS/uL and the “ABSOLUTE MONOCYTE” value [2] was 32 CELLS/uL. The “ABSOLUTE SEGMENTED NEUTROPHIL” value [2] was 1084.33 CELLS/uL, the BASOPHIL [2] was 0% and the EOSINOPHIL [2] was 0.17%. For the same compound, the “ERYTHROCYTE COUNT” value [2] was 5.71 x10E6/uL, the HEMATOCRIT [2] was 35.28% and the HEMOGLOBIN [2] was 14.27 G/DL. For the same compound, the “LEUKOCYTE COUNT” value [2] was 16.08 x10E3/uL, the LYMPHOCYTE [2] was 93% and the “MEAN CORPUSCULAR HEMOGLOBIN” value [2] was 25.02 pg. The “MEAN CORPUSCULAR HEMOGLOBIN CONCENTRATION” value [2] was 40.43 G/DL, the “MEAN CORPUSCULAR VOLUME” value [2] was 61.82 fL and the MONOCYTE [2] was 0.17%. The NEUTROPHIL [2] was 6.67%, the “NUCLEATED RED BLOOD CELLS” value [2] was 0.33 /100WBC and the “PLATELET COUNT” value [2] was 1274 x10E3/uL. For the same compound, the “ALANINE AMINOTRANSFERASE” value [2] was 54.17 u/L, the ALBUMIN [2] was 4.22 G/DL and the “ALKALINE PHOSPHATASE” value [2] was 373.17 u/L. For the same compound, the “ASPARTATE AMINOTRANSFERASE” value [2] was 81.83 u/L, the “BLOOD UREA NITROGEN” value [2] was 16.67 mg/dL and the “CARBON DIOXIDE” value [2] was 30.33 mmol/L. The CHLORIDE [2] was 99 MEQ/L, the CHOLESTEROL [2] was 71 mg/dL and the “CREATINE PHOSPHOKINASE” value [2] was 273.5 u/L. For the same compound, the CREATININE [2] was 0.22 mg/dL, the GLUCOSE [2] was 141.83 mg/dL and the “LACTATE DEHYDROGENASE” value [2] was 153.67 u/L. For the same compound, the LIPASE [2] was 10.33 u/L, the PHOSPHORUS [2] was 11.38 mg/dL and the POTASSIUM [2] was 7.08 MEQ/L. For the same compound, the SODIUM [2] was 142.75 MEQ/L, the “TOTAL BILIRUBIN” value [2] was 0.18 mg/dL and the “TOTAL PROTEIN” value [2] was 6.1 G/DL. For the same compound, the “URIC ACID” value [2] was 1.67 mg/dL, the “ABSOLUTE BASOPHIL” value [3] was 0 CELLS/uL and the “ABSOLUTE EOSINOPHIL” value [3] was 0 CELLS/uL. For the same compound, the “ABSOLUTE LYMPHOCYTE” value [3] was 12631.33 CELLS/uL, the “ABSOLUTE MONOCYTE” value [3] was 43.67 CELLS/uL and the “ABSOLUTE SEGMENTED NEUTROPHIL” value [3] was 1191.67 CELLS/uL. The BASOPHIL [3] was 0%, the EOSINOPHIL [3] was 0% and the “ERYTHROCYTE COUNT” value [3] was 5.07 x10E6/uL. The HEMATOCRIT [3] was 32.77%, the HEMOGLOBIN [3] was 13.23 G/DL and the “LEUKOCYTE COUNT” value [3] was 13.87 x10E3/uL. For the same compound, the LYMPHOCYTE [3] was 91%, the “MEAN CORPUSCULAR HEMOGLOBIN” value [3] was 26.23 pg and the “MEAN CORPUSCULAR HEMOGLOBIN CONCENTRATION” value [3] was 40.4 G/DL. For the same compound, the “MEAN CORPUSCULAR VOLUME” value [3] was 64.77 fL, the MONOCYTE [3] was 0.33% and the NEUTROPHIL [3] was 8.67%. The “NUCLEATED RED BLOOD CELLS” value [3] was 0 /100WBC, the “PLATELET COUNT” value [3] was 1275.67 x10E3/uL and the “ALANINE AMINOTRANSFERASE” value [3] was 54 u/L. The ALBUMIN [3] was 4.07 G/DL, the “ALKALINE PHOSPHATASE” value [3] was 332.67 u/L and the “ASPARTATE AMINOTRANSFERASE” value [3] was 79.33 u/L. For the same compound, the “BLOOD UREA NITROGEN” value [3] was 16.67 mg/dL, the “CARBON DIOXIDE” value [3] was 27 mmol/L and the CHLORIDE [3] was 101.67 MEQ/L. For the same compound, the CHOLESTEROL [3] was 72.67 mg/dL, the “CREATINE PHOSPHOKINASE” value [3] was 227.67 u/L and the CREATININE [3] was 0.25 mg/dL. The GLUCOSE [3] was 180 mg/dL, the “LACTATE DEHYDROGENASE” value [3] was 173.33 u/L and the LIPASE [3] was 9 u/L. For the same compound, the PHOSPHORUS [3] was 13.13 mg/dL, the POTASSIUM [3] was 7.43 MEQ/L and the SODIUM [3] was 143.37 MEQ/L. For the same compound, the “TOTAL BILIRUBIN” value [3] was 0.2 mg/dL, the “TOTAL PROTEIN” value [3] was 5.57 G/DL and the “URIC ACID” value [3] was 1.97 mg/dL.

Reference: ChEMBL document CHEMBL3885881, “DrugMatrix”
